Entries after “also recorded” stand apart in the source; their conditions may differ.
What was measured:
[1] = test system: nuclear chromatin decondensation in PMNs; assay: Nuclear decondensation assay in PMA-treated neutrophils; type: cell-based, human; settings: PMA 20 nM; peptides 1 nM, Cl-amidine 10 μM, sivelestat 200 nM
Experimental: FIG. 7B is a graph depicting nuclear areas that were measured (n=4) using IMAGEJ™ software (mean nuclear pixel area per cell±SEM). Paired Student's t test, *P<0.05, § P=0.057.
FIG. 12A depicts nuclear decondensation (white arrowheads and magnified image) that were assessed as in FIGS. 7A-7E after a 1 hour preincubation in medium alone, with neutrophil elastase (NE) inhibitor sivelestat (SIVL; 200 nM), or with CRISPP or CRISPP-SCR (both 1 nM) followed by treatment with PMA (20 nM) and an additional 1 hour incubation (n=3). Green fluorescence=nuclear DNA, (60× magnification, scale bar=20 μm). Nuclear area was quantified using IMAGEJ™ software (nuclear pixel area per cell±SEM). One way ANOVA with Tukey's post hoc testing; **P<0.01, ***P<0.001.
Nuclear decondensation was identified as described (see Papayannopoulos V, et al., J Cell Biol. 2010; 191 (3):677-91). Five randomly selected high-power visual fields per sample were captured via confocal microscopy and analyzed for nuclear area using the cell-permeable, fluorescent DNA dye SYTO® Green. The nuclear pixel areas of >100 individual cells per high-power field were determined using IMAGEJ™ software (NIH).

[2] = test system: reactive oxygen species generation by PMNs; assay: Reactive oxygen species generation (dihydrorhodamine, flow cytometry); type: cell-based, human; settings: LPS 100 ng/mL, 1 hour
Experimental: FIG. 6B is a graph depicting reactive oxygen species generation that was measured by dihydrorhodamine detection after LPS stimulation (100 ng/mL, 1 hour).
Human PMNs isolated from healthy adult whole blood were resuspended to a concentration of 2×10^6 cells/mL in M-199 media and pre-incubated±CRISPP (1 nM) or CRISPP-SCR (1 nM) peptide for 1 hour at 37° C. in 5% CO2/95% air. The PMNs were then stimulated with LPS (100 ng/mL) for 1 hour, washed, and resuspended with a dihydrorhodamine ([…]; MOLECULAR PROBES®) and catalase (1000 Units/mL; SIGMA-ALDRICH®) mixture and incubated at 37° C. for 10 minutes. After incubation, samples were placed at 4° C. and analyzed for ROS-dependent fluorescence using flow cytometry as performed in the University of Utah core facility (BECTON DICKINSON™, […]™ software).
Without being bound by any specific theory, it was hypothesized that placentally expressed HTRA1, a serine protease, regulates the formation of NET-inhibitory peptides through cleavage of AAT. To test this hypothesis, term and preterm placenta were assessed for HTRA1 expression via western blotting. HTRA1 and AAT plasma expression from term and preterm infants and adults were determined by ELISA. Bioactive (0.5 μg) or placental eluted HTRA1 was incubated with AAT (8 μM) for 18 hours at 37° C. Carboxy-terminus fragments of AAT were detected using western blotting and mass spectrometry. […]

[3] = test system: LPS-induced peritoneal NET formation; assay: Mouse model of LPS-induced peritonitis (in vivo NET formation); settings: C57BL/6 mice, i.p. LPS
Experimental: C57/BL6 or Swiss-Webster mice were pretreated in blinded fashion with CRISPP (10 mg/kg), nNIF (10 mg/kg), or CRISPP-SCR (10 mg/kg) by i.p. injection 1 hour prior to infection (E. coli, 4.5×10^7 cfu/mouse, i.p.) or inoculation (LPS, 25 mg/kg, i.p.) (SIGMA-ALDRICH®). Control mice were injected with saline alone. The mice were sacrificed in a CO2 chamber 3 hours post-infection/inoculation, and the peritoneal fluid and membrane samples were harvested. Briefly, the abdomen was disinfected and opened in the midline without injuring the muscle. The peritoneal cavity was lavaged with sterile saline solution (1 mL) and analyzed for in vivo NET formation, bacteriology, and leukocyte accumulation. NETs in the peritoneal fluid were qualitatively and quantitatively analyzed using live cell imaging with confocal microscopy and NET-associated histone H3 release assays. NETs on the serosal surface of the peritoneal membrane were assessed quantitatively using live cell imaging, followed by standardized grid analysis of five randomly selected high-power visual fields per tissue sample (IMAGEJ™ software, NIH). Peritoneal bacterial colony forming unit (cfu) counts were quantified by permeabilizing all recovered leukocytes with 0.1% Triton X-100 for 10 minutes and performing serial dilutions and bacterial cultures on 5% sheep blood agar plates (HARDY DIAGNOSTICS™). After a 24-hour incubation, bacterial counts were determined. Total leukocyte counts in the peritoneal lavage were determined in Neubauer chambers using an optical microscope after dilution in Turk's solution (2% acetic acid). Differential leukocyte analysis was performed using a 60× oil immersion objective to assess morphology of cyto-centrifuged cells stained with May-Gruenwald-Giemsa dye. All mice were included in the final analysis.

[4] = test system: C57BL/6 mice challenged with LPS; assay: Mouse model of systemic inflammation induced by LPS (endotoxemia), survival; type: in vivo
Experimental: Animals with no treatments or given LPS alone were studied in parallel (n≥10 mice for each condition). **P<0.01, log-rank (Mantel-Cox) statistical tool used. The survival difference between nNIF-LPS and CRISPP-LPS compared to CRISPP-SCR-LPS trended toward significance (§ P=0.051).
Control mice were i.p. injected with saline alone. Fluid resuscitation and antibiotic treatment were not used in these experiments. Survival was assessed over 50 or 72 hour intervals. All mice were included in the final survival analysis.

Row | Substance | nuclear decondensation (number of decondensed nuclei) [1] | generation of reactive oxygen species (ROS) [2] | LPS-induced peritoneal NET formation [3] | survival advantage at 72 hours ([4]; second experiment, compared to LPS alone) | animals alive at 50 hours ([4]; i.p. LPS, first experiment, n=6 per group)
1 | KFNKPFVFLMIEQNTKSPLFMGKVVNPTQ (listed as Homo sapiens) [nNIF] | dramatically reduced | did not inhibit | inhibited | durable | 
2 | M_IPPEVKFNKPFVFLMIDQNTKVPLFMGK [CRISPP, consensus peptide based on factors present in the blood of patients with cancer] | dramatically reduced | did not inhibit; also recorded: not inhibited | inhibited |  | all

— patent US10857201B2, “NNIF and nNIF-related peptides and related methods” (UNIVERSITY OF UTAH RESEARCH FOUNDATION, priority 2016, dated 2020)
